According to PubChem BioAssay AID330 (DTP/NCI, 2004):
Several values for one entry are separate records, joined by “and”; a condition that tells them apart may be missing. Identical values can stand only once. Toxic doses and inconclusive results are not listed. How the source made its calls: active means survival T/C of 150% or more; inactive means T/C below 125% in these data. Peptide text beside a SMILES is read from it. * marks the point of attachment. Cbz = O=C(OCc1ccccc1)*; Bn = c1ccc(C*)cc1; NHNH2 = NN*

System: P388 leukemia ip, CD2F1 mice, survival T/C
Assay: NCI In Vivo Anticancer Drug Screen. Data for tumor model P388 Leukemia (intraperitoneal) in CD2F1 (CDF1) mice
Conditions: endpoint: median survival time, higher = longer survival
Procedure, shortened: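 Mice carrying the transplanted tumor received test compound or vehicle. Survival was recorded in each group, and the value is the treated-group measurement divided by that of the vehicle-treated control group.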

[1] = dose: 100.0 mg/kg/injection, schedule: Q01DX009 (ip), vehicle: saline with Tween-80
[2] = dose: 200.0 mg/kg/injection, schedule: Q01DX009 (ip), vehicle: saline with Tween-80
[3] = dose: 400.0 mg/kg/injection, schedule: Q01DX009 (ip), vehicle: saline with Tween-80
[4] = dose: 50.0 mg/kg/injection, schedule: Q01DX005 (ip), vehicle: saline
[5] = dose: 100.0 mg/kg/injection, schedule: Q01DX005 (ip), vehicle: saline

Measured: T/C

CC(C)(CN)SCc1ccccc1
inactive: dose: 25.0 mg/kg/injection, schedule: Q01DX009 (ip), vehicle: saline 100 % of control | dose: 25.0 mg/kg/injection, schedule: Q04DX003 (ip), vehicle: saline 100 % of control | dose: 50.0 mg/kg/injection, schedule: Q01DX009 (ip), vehicle: saline 100 % of control | dose: 50.0 mg/kg/injection, schedule: Q04DX003 (ip), vehicle: saline 86 % of control | dose: 100.0 mg/kg/injection, schedule: Q01DX009 (ip), vehicle: saline 100 % of control | dose: 100.0 mg/kg/injection, schedule: Q04DX003 (ip), vehicle: saline 90 % of control

CCC(=O)Nc1ccc(Br)cc1
inactive: dose: 50.0 mg/kg/injection, schedule: Q01DX009 (ip), vehicle: saline with Tween-80 102 % of control | [1] 94 % of control | [2] 96 % of control | [3] 96 % of control

CCN(CC)C(=S)SC(=S)N(CC)CC
inactive: [1] 108 % of control | [2] 104 % of control | [3] 103 % of control

CCCC(O)CNCc1ccnc2ccc(OC)cc12 (stereo not drawn)
inactive: [4] 109 % of control | [5] 98 % of control

O=C1SC(Nc2ccc(Br)cc2)/C(=N\N=C2/C(Nc3ccc(Br)cc3)SC(=O)N2Cc2ccccc2)N1Cc1ccccc1 (stereo not drawn)
inactive: dose: 100.0 mg/kg/injection, schedule: Q04DX002 (ip), vehicle: Klucel (hydroxypropylcellulose) (HPC) 97 % of control | dose: 200.0 mg/kg/injection, schedule: Q04DX002 (ip), vehicle: Klucel (hydroxypropylcellulose) (HPC) 91 % of control | dose: 400.0 mg/kg/injection, schedule: Q04DX002 (ip), vehicle: Klucel (hydroxypropylcellulose) (HPC) 91 % of control

O=C(Nc1cccc2ccccc12)OCCN=Cc1ccccc1O.O=C(Nc1cccc2ccccc12)OCCN=Cc1ccccc1O.[Cu]
inactive: dose: 100.0 mg/kg/injection, schedule: Q04DX002 (ip), vehicle: saline with Tween-80 94 % of control | dose: 200.0 mg/kg/injection, schedule: Q04DX002 (ip), vehicle: saline with Tween-80 94 % of control | dose: 400.0 mg/kg/injection, schedule: Q04DX002 (ip), vehicle: saline with Tween-80 107 % of control and 94 % of control

O=c1ccc2cc3ccoc3c(OCCCCCCCCCCCCOc3c4occc4cc4ccc(=O)oc34)c2o1
inactive: dose: 6.25 mg/kg/injection, schedule: Q01DX005 (ip), vehicle: saline with Tween-80 100 % of control | dose: 12.5 mg/kg/injection, schedule: Q01DX005 (ip), vehicle: saline with Tween-80 100 % of control | dose: 25.0 mg/kg/injection, schedule: Q01DX005 (ip), vehicle: saline with Tween-80 88 % of control

NNC(=O)C(Cc1ccc(O)cc1)NC(=O)C(CSCc1ccccc1)NC(=O)OCc1ccccc1 (stereo not drawn) (Cbz-Cys(Bn)-Tyr-NHNH2; configuration not given here)
inactive: dose: 50.0 mg/kg/injection, schedule: Q01DX009 (ip), vehicle: Klucel (hydroxypropylcellulose) (HPC) 93 % of control | dose: 100.0 mg/kg/injection, schedule: Q01DX009 (ip), vehicle: Klucel (hydroxypropylcellulose) (HPC) 91 % of control | dose: 200.0 mg/kg/injection, schedule: Q01DX009 (ip), vehicle: Klucel (hydroxypropylcellulose) (HPC) 89 % of control

CCCCCCCCCCCCC(O)CCC1CCCCN1 (stereo not drawn)
inactive: [4] 102 % of control | [5] 105 % of control

CC1(C)COC(c2ccc(Br)cc2)=N1
inactive: dose: 25.0 mg/kg/injection, schedule: Q01DX009 (ip), vehicle: other 101 % of control | dose: 50.0 mg/kg/injection, schedule: Q01DX009 (ip), vehicle: other 97 % of control | dose: 100.0 mg/kg/injection, schedule: Q01DX009 (ip), vehicle: other 102 % of control | dose: 200.0 mg/kg/injection, schedule: Q01DX009 (ip), vehicle: other 104 % of control
